Publication PMC9519446, “Discovery of an Orally Active Benzoxaborole Prodrug Effective in the Treatment of Chagas Disease in Non-human Primates” (Nature microbiology, 2022)
Values joined by “and” are separate entries in the source; they are usually repeats but may differ in a detail not shown here. Equal entries are not always repeated. Where two headings read alike, the source gives them in different places.

Assays:
[1] = tested on: T. cruzi intracellular amastigotes; assay: In vitro anti-T. cruzi intracellular amastigote growth inhibition assay (tdTomato fluorescence over 72 hours, Vero cells); format: cell-based, Trypanosoma cruzi
Experimental: (§1) The in vitro anti-T. cruzi amastiogote activity assay was performed and optimized based on the protocol described previously. The change in tdTomato fluorescence intensity was determined as a measurement of growth over 72 hours of culture. For assaying drug effects on extracellular amastigotes, trypomastigotes were collected from infected Vero cell cultures and converted in acidic media as previously described. Amastigotes (50,000/well) were incubated with 2-fold serial dilutions of compounds for 48 hours. The ATP production was used as an indication of growth in this case, and was measured by ATPlite Luminescence ATP Detection Assay System (PerkinElmer). Both fluorescence and luminescence were read using a BioTek Synergy Hybrid Multi-Mode reader equipped with the software Gene5 v 2.0 (BioTek). The dose-response curve was generated by […] analysis with GraphPad Prism v9.4.0 (GraphPad Software).

[2] = tested on: CPSF3-OE T. cruzi intracellular amastigotes; assay: microbe, parasite or virus in culture; format: cell-based; conditions: Trypanosoma cruzi, read-out: CPSF3-OE IC50, intracellular amastigotes
Experimental: as §1
The CPSF3 gene was amplified using primers ‘[…]’ and ‘[…]’, and integrated into the pTrex vector [47] by NEBuilder HiFi DNA assembly (New England Biolabs). The construct of pTrex-CPSF was then transfected into Brazil tdTomato epimastigotes and selected by 60ug/ml blasticidin.
To confirm the CPSF overexpression in the selected transfectants, RNA was extracted as previously described and converted to cDNA using SuperScript Reverse Transcriptase (Invitrogen). Quantitative PCR reactions were performed in triplicate on the C1000 Touch Bio-Rad CFX96 real-time PCR detection system for CPSF using primer sets CPSF-1 (5'-[…]-3' and 5'-[…]-3') and CPSF-2 (5'-[…]-3' and 5'-[…]-3') in both control and CPSF over-expressing parasites, and the expression level was normalized to tubulin which was amplified using primers: ‘[…]’ and ‘[…]’.

[3] = tested on: metallocarboxypeptidase 2 disrupted T. cruzi intracellular amastigote; assay: Intracellular amastigote assay with metallocarboxypeptidase 2 (TcCLB.504045.60) disrupted T. cruzi; format: cell-based, Trypanosoma cruzi; conditions: Fig. S1
Description: activity of AN14353 on intracellular amastigote (b). Representative microphotographs of assays repeated at least three times are shown. Data are presented as mean values +/- SEM; n= 3 […]
(1 picture or pasted object on this page, not shown here)

[4] = tested on: T. cruzi Brazil strain; assay: Mouse cure assays (daily oral treatment, immunosuppression, qPCR of skeletal muscle, blood microscopy, hemoculture); format: in vivo, C57BL/6 mice; conditions: for Parasite equivalent/ 50 ng of DNA of skeletal muscle: individual mice; for Parasite Equivalents/50ng of DNA of skeletal muscle: individual animals
Experimental: Male or female C57BL/6 mice were intraperitoneally infected with 10^4 trypomastigotes of the Brazil strain. Mouse infection was confirmed at 25-30 dpi by detection of CD8^+ T cells specific against the T. cruzi TSKb20 peptide in blood. Compounds resuspended in 1% carboxymethyl cellulose and 0.1% Tween 80, were administered daily by gavage at the specified concentrations. In order to optimally detect persistent infection, immune responses in the mice were suppressed by intraperitoneal injection of four doses of cyclophosphamide every 2-3 days (200 mg/kg/day), beginning one week after the end of therapeutic treatment. At the end of the immunosuppression regimen, peripheral blood was checked under light microscope for parasites and cultured in LDNT media. Mouse skeletal muscle samples were obtained at the end of the immunosuppression and processed for T. cruzi-DNA detection by qPCR as previously described.

[5] = tested on: broad array of mammalian enzymes, receptors and ion channels; assay: Preliminary safety pharmacology panel; format: binding
[6] = Ames study
[7] = In vitro micronucleus study; format: cell-based
[8] = tested on: representative cytochrome P450 enzymes; assay: Cytochrome P450 inhibition; format: in vitro ADME; conditions: 10 uM
[9] = tested on: T. cruzi CL strain in Vero cells; assay: RNA-seq: parasite mRNA relative to host cell (Vero) mRNA; format: cell-based, Trypanosoma cruzi
Experimental: The drug concentration used for treatment was set at 5 times the IC50. Samples were collected at several time points for RNA extraction as previously described. rRNA-depleted RNA library construction and RNA sequencing using Illumina Nextseq 75PE was carried out by Georgia Genomics and Bioinformatics Core (GGBC, University of Georgia, Georgia). […] The mapping rate was quantified by HTseq v0.6.1 [51].

[10] = Pharmacokinetics in mice
[11] = tested on: CPSF3 mutant T. cruzi intracellular amastigotes; assay: Intracellular amastigote assay with CPSF3 Asn to His mutant T. cruzi; format: cell-based, Trypanosoma cruzi; conditions: for % of maximum: Fig 5.d, CPSF3-mutant
Experimental: as §1
To generate CPSF3 mutant, a RNP c omplex was transfected into Brazil tdTomato strain epimastigotes to target the CPSF3 gene (TcBrA4_0124800), together with a repair template that contained the mutation of Asn^231 to His[21]. The sgRNA targeted the ‘[…]’ site. […] The ultimate resistant parasites were validated to have acquired the Asn^231His mutation in CPSF3 via sequencing.

[12] = High dose 7-day toxicology study with exposure
[13] = Trypanosoma cruzi, Vero, read-out: WT IC50, WT intracellular amastigotes, control of CPSF3-OE comparison
[14] = Trypanosoma cruzi, Vero, in vitro, Fig. 1a, Extended Data Fig. 1a, read-out: T. cruzi IC50
[15] = Fig. 3b, mice treated for 40 days
[16] = Fig. 3c, mice treated for 20 days

Cc1c(C(=O)NC(C(=O)OCc2ccc(F)c(F)c2)C(C)C)ccc2c1B(O)OC2 (stereo not drawn) [AN14353]
IC50 [1, 13]: 0.5 nM | IC50 [1, 14]: 6 nM | IC50 [2]: 1.9 nM | impact of metallocarboxypeptidase 2 disruption on activity [3]: Lack of impact | outcome of cure assay ([4]; 25 mg/kg, 40 day treatment, wild-type mice and immunodeficient mice): could consistently resolve established T. cruzi infections | Parasite equivalent/ 50 ng of DNA of skeletal muscle [4, 15]: 0.00339 Parasite equivalent/ 50 ng of DNA and 0.0112 Parasite equivalent/ 50 ng of DNA and 0.00674 Parasite equivalent/ 50 ng of DNA and 0.0326 Parasite equivalent/ 50 ng of DNA and 0.00218 Parasite equivalent/ 50 ng of DNA and 6.96e-5 Parasite equivalent/ 50 ng of DNA and 0.03 Parasite equivalent/ 50 ng of DNA | Parasite equivalent/ 50 ng of DNA of skeletal muscle [4, 16]: 3.39 Parasite equivalent/ 50 ng of DNA and 0.89 Parasite equivalent/ 50 ng of DNA and 0.07 Parasite equivalent/ 50 ng of DNA and 1.14 Parasite equivalent/ 50 ng of DNA and 0.69 Parasite equivalent/ 50 ng of DNA and 1.27 Parasite equivalent/ 50 ng of DNA | Parasite Equivalents/50ng of DNA of skeletal muscle ([4]; IFNg KO mice): 0.000877 Parasite Equivalents/50ng of DNA and 0.0011 Parasite Equivalents/50ng of DNA and 0.000197 Parasite Equivalents/50ng of DNA and 0.013 Parasite Equivalents/50ng of DNA and 0.002 Parasite Equivalents/50ng of DNA and 0.00327 Parasite Equivalents/50ng of DNA and 0.004 Parasite Equivalents/50ng of DNA and 0.00265 Parasite Equivalents/50ng of DNA and 0.000622 Parasite Equivalents/50ng of DNA | Parasite Equivalents/50ng of DNA of skeletal muscle ([4]; mice, 10 mg/kg): 0.00752 Parasite Equivalents/50ng of DNA and 0.05 Parasite Equivalents/50ng of DNA and 0.00 Parasite Equivalents/50ng of DNA | Parasite Equivalents/50ng of DNA of skeletal muscle ([4]; mice, 25 mg/kg): 0.00369 Parasite Equivalents/50ng of DNA and 0.00 Parasite Equivalents/50ng of DNA and 0.00185 Parasite Equivalents/50ng of DNA and 0.0154 Parasite Equivalents/50ng of DNA | affinity for mammalian enzymes, receptors and ion channels [5]: little to no affinity | genotoxicity, Ames [6]: non-genotoxic | genotoxicity, in vitro micronucleus [7]: non-genotoxic | inhibition of representative cytochrome P450 enzymes [8]: did not demonstrate significant inhibition | RNA-seq reads mapped to African green monkey ([9]; 0hpt): 60 | RNA-seq reads mapped to T.cruzi CL Brener ([9]; 0hpt): 14 | RNA-seq reads unmapped ([9]; 0hpt): 26 | RNA-seq reads mapped to African green monkey ([9]; 6hpt): 63 | RNA-seq reads mapped to T.cruzi CL Brener ([9]; 6hpt): 5 | RNA-seq reads unmapped ([9]; 6hpt): 32 | RNA-seq reads mapped to African green monkey ([9]; 12hpt): 62 | RNA-seq reads mapped to T.cruzi CL Brener ([9]; 12hpt): 2 | RNA-seq reads unmapped ([9]; 12hpt): 35 | RNA-seq reads mapped to African green monkey ([9]; 24hpt): 77 | RNA-seq reads mapped to T.cruzi CL Brener ([9]; 24hpt): 1 | RNA-seq reads unmapped ([9]; 24hpt): 22 | parasite mRNA relative to host cell mRNA ([9]; T. cruzi-infected Vero cells, 30 nM AN14353 or 5 uM benznidazole, from 6 hrs): marked and continuing reduction in parasite mRNA | oral absorption (in words) ([10]; mice, dose proportionality evaluation): solubility-limited absorption | dose proportionality of exposure ([10]; mice, oral): lack of dose

Cc1c(C(=O)N[C@H](C(=O)OCC2CCOCC2)C(C)C)ccc2c1B(O)OC2 [AN15368]
% of maximum ([1]; Fig 5.d, WT, [uM] 0.60): -2% | activity at 0.6 µM ([1]; Trypanosoma cruzi, Vero, 72 h, read-out: % of maximum, Fig 5.d, WT, [uM] 0.60): -2% | IC50 ([1]; Trypanosoma cruzi, Vero, 120 h, read-out: WT IC50, WT intracellular amastigotes, control of CPSF3 mutant comparison, Fig. 5d): 12 nM | IC50 [1, 13]: 2.4 nM | IC50 ([1]; Trypanosoma cruzi, Vero, read-out: WT IC50, WT intracellular amastigotes, control of TcCBP KO comparison): 2.4 nM | IC50 [1, 14]: 5 nM | IC50 [2]: 11.8 nM | % of maximum ([11]; 0.10): 3% and 1% | % of maximum ([11]; 0.40): -6% | % of maximum ([11]; 0.70): 2% and -5% | % of maximum ([11]; 1.00): -6% and -2% | % of maximum ([11]; 1.30): -4% and -2% and 5% | % of maximum ([11]; -0.51): 97% and 106% and 96% | % of maximum ([11]; -0.81): 96% and 123% and 105% | % of maximum ([11]; -1.11): 92% and 97% and 122% | IC50 ([11]; Trypanosoma cruzi, read-out: CPSF3 mutant IC50): 500 nM | minimal efficacious dose in mice ([4]; 40 day treatment cure assay, Fig 3e): 2.5 mg/kg | Parasite equivalent/ 50 ng of DNA of skeletal muscle [4, 15]: 0.0182 Parasite equivalent/ 50 ng of DNA and 0.32 Parasite equivalent/ 50 ng of DNA and 0.00408 Parasite equivalent/ 50 ng of DNA and 0.015 Parasite equivalent/ 50 ng of DNA and 0.12 Parasite equivalent/ 50 ng of DNA and 0.09 Parasite equivalent/ 50 ng of DNA and 0.06 Parasite equivalent/ 50 ng of DNA | Parasite equivalent/ 50 ng of DNA of skeletal muscle [4, 16]: 0.60 Parasite equivalent/ 50 ng of DNA and 0.12 Parasite equivalent/ 50 ng of DNA and 6.19 Parasite equivalent/ 50 ng of DNA and 0.32 Parasite equivalent/ 50 ng of DNA and 0.45 Parasite equivalent/ 50 ng of DNA | Parasite equivalent/ 50 ng of DNA of skeletal muscle ([4]; Fig. 3e, mice treated for 40 days with 2.5 mg/kg, 2.5 mg/kg): 0.7074 Parasite equivalent/ 50 ng of DNA and 0.07409 Parasite equivalent/ 50 ng of DNA and 0.06686 Parasite equivalent/ 50 ng of DNA and 0.2452 Parasite equivalent/ 50 ng of DNA and 0.02329 Parasite equivalent/ 50 ng of DNA and 2.237 Parasite equivalent/ 50 ng of DNA and 0.1466 Parasite equivalent/ 50 ng of DNA | outcome of cure assays ([4]; mice, Fig. 3): cures T. cruzi infection in mice | affinity for mammalian enzymes, receptors and ion channels [5]: little to no affinity | genotoxicity, Ames [6]: non-genotoxic | genotoxicity, in vitro micronucleus [7]: non-genotoxic | inhibition of representative cytochrome P450 enzymes [8]: did not demonstrate significant inhibition | exposure AUC0-last ([10]; mice, 10mg/kg dose): 17.5 µg·h/kg | minimal curative exposure in mice ([10]; mouse, in vivo, 2.5 mg/kg): 4.375 µg·h/kg | dose proportionality of exposure ([12]; 7-day toxicology studies / rats): good dose proportional exposure | NOAEL dose translated by allometric scaling ([12]; humans): 19.4 mg/kg | NOAEL dose translated by allometric scaling ([12]; monkeys): 60.5 mg/kg | AUC(0-t) ([12]; rat, in vivo, 120 mg/kg/day, Total plasma exposure (AUC0-24 h), rats, 120 mg/kg/day (NOAEL dose)): 30 µg·h/mL | AUC ([12]; rat, in vivo, 600 mg/kg): 256 µg·h/mL | NOAEL at 7 days ([12]; rat, in vivo, oral): 120 mg/kg | microscopic findings ([12]; rats): observed microscopically in liver (dose dependent), kidney | effects on hematology and clinical chemistry ([12]; rats, 120 mg/kg/day or lower): none | effects on hematology and clinical chemistry ([12]; rats, 150 mg/kg): modest effects | drug accumulation ([12]; rats, between the first and seventh days of the study): no evidence of drug accumulation
